Test results: patent US6306854A, “Chemical compounds” (Glaxosmithkline, priority 1998, dated 2001)

Key:
hPPAR alpha = test: Binding Assay (displacement of Radioligand from GST-hPPAR alpha); design: species or system human; settings: 60 nM Radioligand
Description: Bound radioactivity eluted in the column void volume and was quantitated by liquid scintillation counting.

[1] = tested on: PPAR alpha over PPAR gamma; test: Transfection assay, selectivity for PPAR alpha over PPAR gamma (GAL4-hPPAR alpha and GAL4-hPPAR gamma); assay type: cell-based, human; settings: CV-1 cells
Description: Plasmids: GAL4-hPPAR alpha chimera and UAS-tk-SPAP reporters.
Transfection assay: SPAP reporter. CV-1 cells were plated in DME medium supplemented with 10% delipidated fetal calf serum at a density of 2.4×10^4 cells per well in a 96-well plate (Costar) 16-24 h before transfection. In general, 8.0 ng of reporter plasmid, 25.0 ng of β-galactosidase expression vector (pCH 110, Pharamacia), and 2.0 ng of GAL4-hPPAR alpha or GAL4-hPPAR gamma expression vector were mixed with carrier DNA (pBluescript, Stratagene) to a total of 80 ng of DNA per well in a volume of […] optiMEM I medium (Life Technologies). To this, a second mix, containing […] optiMEM I medium and […] of LIPOFECTAMINE™ (Life Technologies), was added. After 30 min. an additional […] of optiMEM I medium were added and the combined mix was then applied to the cells. […] Alternatively, alkaline phosphatse and β-galactosidase activities were measured separately using standard protocols. Briefly, cells were lysed by adding […] 0.5% Triton X-100 to the supernatant.

Zucker fa/fa female rats = test: Diet-Induced Model of Dyslipidemia, Zucker fa/fa female rats; assay type: in vivo, rat; settings: females
Description: (§1) Zucker lean male rats and Zucker fa/fa female rats were randomized into 3 treatment groups. The randomization was based on serum triglyceride concentration after three months on the TEKLAD high fat diet. Dosing with Example 5 or the appropriate vehicle, by oral gavage, began after 4 months of high fat feeding. Plasma glucose, lactate, serum insulin and lipid concentrations were obtained weekly, beginning on day 7 through 48 after the initiation of therapy. Metabolic data from each treatment group was collected weekly. Dexascan determinations of body mass composition obtained after 4 months on the high fat diet served as baseline. Changes in body mass composition due to therapy were determined by repeat measurements at the end of the study.
(§2) Treatment Group B Example 5 (0.1 mg/kg) dosed twice a day.
(§3) Treatment Group C Example 5 (0.3 mg/kg) dosed twice a day.

Zucker lean male rats = test: Diet-Induced Model of Dyslipidemia, Zucker lean male rats; assay type: in vivo, rat; settings: males; for NEFA: before drug 0.72
Description: as §1, §2, §3

## [3H]C(CCCC)C([3H])CN(CCc1ccc(OC(C)(CC)C(=O)O)cc1)C(=O)Nc1ccc(F)cc1F (centres unmarked) [Radioligand, 2-(4-(2-(2,3-Ditritio-1-heptyl-3-(2,4-difluorophenyl)ureido)ethyl)phenoxy)-2-methylbutanoic Acid]
hPPAR alpha; no competitor minus 10 μM Cold Radioligand
  Specific Binding: 115000 dpm

## CC(C)(Sc1ccc(CCN(CCc2ccc(-c3ccccc3)cc2)C(=O)NC2CCCCC2)cc1)C(=O)O [Example 2, 2-(4-(2-(1-(4-Biphenylethyl)-3-cyclohexylureido)ethyl)phenylthio)-2-methylpropionic Acid]
[1]
  activity ratio, PPAR alpha over PPAR gamma: greater than 100

## CCCCCCCN(CCc1ccc(OC(C)(CC)C(=O)O)cc1)C(=O)Nc1ccc(F)cc1F (centres unmarked) [Cold Radioligand, 2-(4-(2-(1-Heptyl-3-(2,4-difluorophenyl)ureido)ethyl)phenoxy)-2-methylbutanoic Acid]
hPPAR alpha; 10 μM competitor, 4° C., 2-3 hr, mean of triplicate, no competitor 140000
  Bound radioactivity in presence of competitor: 25000 dpm

## CCCCCCCN(CCc1ccc(SC(C)(C)C(=O)O)cc1)C(=O)Nc1ccc(F)cc1F [Example 5, 2-(4-(2-(1-Heptyl-3-(2,4-difluorophenyl)ureido)ethyl)phenylthio)-2-methylpropionic Acid]
Zucker fa/fa female rats; 0.1 mg/kg oral gavage twice a day, Week 1, before drug 11.15, vehicle 6.78
  NEFA: 2.47 m Eq/L
Zucker fa/fa female rats; 0.1 mg/kg oral gavage twice a day, Week 1, before drug 665, vehicle 684
  Body Weight: 721 g
Zucker fa/fa female rats; 0.1 mg/kg oral gavage twice a day, Week 1, before drug 1648, vehicle 1186
  Cholesterol: 610 mg/dL
Zucker fa/fa female rats; 0.1 mg/kg oral gavage twice a day, Week 1, before drug (after 4 months on high-fat diet) 9310, vehicle 5357
  Triglycerides: 2717 mg/dL
Zucker fa/fa female rats; 0.1 mg/kg oral gavage twice a day, Week 4, before drug 11.15, vehicle 2.79
  NEFA: 1.32 m Eq/L
Zucker fa/fa female rats; 0.1 mg/kg oral gavage twice a day, Week 4, before drug 665, vehicle 700
  Body Weight: 723 g
Zucker fa/fa female rats; 0.1 mg/kg oral gavage twice a day, Week 4, before drug 1648, vehicle 1319
  Cholesterol: 733 mg/dL
Zucker fa/fa female rats; 0.1 mg/kg oral gavage twice a day, Week 4, before drug 9310, vehicle 10414
  Triglycerides: 3913 mg/dL
Zucker fa/fa female rats; 0.1 mg/kg oral gavage twice a day, Week 7, before drug 11.15, vehicle 3.77
  NEFA: 1.75 m Eq/L
Zucker fa/fa female rats; 0.1 mg/kg oral gavage twice a day, Week 7, before drug 665, vehicle 706
  Body Weight: 710 g
Zucker fa/fa female rats; 0.1 mg/kg oral gavage twice a day, Week 7, before drug 1648, vehicle 923
  Cholesterol: 632 mg/dL
Zucker fa/fa female rats; 0.1 mg/kg oral gavage twice a day, Week 7, before drug 9310, vehicle 5465
  Triglycerides: 2627 mg/dL
Zucker fa/fa female rats; 0.3 mg/kg oral gavage twice a day, Week 1, before drug 13.06, vehicle 6.78
  NEFA: 1.45 m Eq/L
Zucker fa/fa female rats; 0.3 mg/kg oral gavage twice a day, Week 1, before drug 645, vehicle 684
  Body Weight: 673 g
Zucker fa/fa female rats; 0.3 mg/kg oral gavage twice a day, Week 1, before drug 1908, vehicle 1186
  Cholesterol: 350 mg/dL
Zucker fa/fa female rats; 0.3 mg/kg oral gavage twice a day, Week 1, before drug 9190, vehicle 5357
  Triglycerides: 1627 mg/dL
Zucker fa/fa female rats; 0.3 mg/kg oral gavage twice a day, Week 4, before drug 13.06, vehicle 2.79
  NEFA: 0.59 m Eq/L
Zucker fa/fa female rats; 0.3 mg/kg oral gavage twice a day, Week 4, before drug 645, vehicle 700
  Body Weight: 643 g
Zucker fa/fa female rats; 0.3 mg/kg oral gavage twice a day, Week 4, before drug 1908, vehicle 1319
  Cholesterol: 404 mg/dL
Zucker fa/fa female rats; 0.3 mg/kg oral gavage twice a day, Week 4, before drug 9190, vehicle 10414
  Triglycerides: 687 mg/dL
Zucker fa/fa female rats; 0.3 mg/kg oral gavage twice a day, Week 7, before drug 13.06, vehicle 3.77
  NEFA: 0.53 m Eq/L
Zucker fa/fa female rats; 0.3 mg/kg oral gavage twice a day, Week 7, before drug 645, vehicle 706
  Body Weight: 582 g
Zucker fa/fa female rats; 0.3 mg/kg oral gavage twice a day, Week 7, before drug 1908, vehicle 923
  Cholesterol: 422 mg/dL
Zucker fa/fa female rats; 0.3 mg/kg oral gavage twice a day, Week 7, before drug 9190, vehicle 5465
  Triglycerides: 538 mg/dL
Zucker lean male rats; 0.1 mg/kg oral gavage twice a day, Week 1, vehicle 0.85
  NEFA: 0.73 m Eq/L
Zucker lean male rats; 0.1 mg/kg oral gavage twice a day, Week 1, before drug 221, vehicle 191
  Cholesterol: 138 mg/dL
Zucker lean male rats; 0.1 mg/kg oral gavage twice a day, Week 1, before drug 636, vehicle 610
  Body Weight: 617 g
Zucker lean male rats; 0.1 mg/kg oral gavage twice a day, Week 1, before drug (after 4 months on high-fat diet) 828, vehicle 718
  Triglycerides: 460 mg/dL
Zucker lean male rats; 0.1 mg/kg oral gavage twice a day, Week 4, vehicle 0.65
  NEFA: 0.57 m Eq/L
Zucker lean male rats; 0.1 mg/kg oral gavage twice a day, Week 4, before drug 221, vehicle 224
  Cholesterol: 189 mg/dL
Zucker lean male rats; 0.1 mg/kg oral gavage twice a day, Week 4, before drug 636, vehicle 610
  Body Weight: 592 g
Zucker lean male rats; 0.1 mg/kg oral gavage twice a day, Week 4, before drug 828, vehicle 741
  Triglycerides: 467 mg/dL
Zucker lean male rats; 0.1 mg/kg oral gavage twice a day, Week 7, vehicle 0.60
  NEFA: 0.58 m Eq/L
Zucker lean male rats; 0.1 mg/kg oral gavage twice a day, Week 7, before drug 221, vehicle 215
  Cholesterol: 148 mg/dL
Zucker lean male rats; 0.1 mg/kg oral gavage twice a day, Week 7, before drug 636, vehicle 632
  Body Weight: 597 g
Zucker lean male rats; 0.1 mg/kg oral gavage twice a day, Week 7, before drug 828, vehicle 725
  Triglycerides: 584 mg/dL
Zucker lean male rats; 0.3 mg/kg oral gavage twice a day, Week 1, vehicle 0.85
  NEFA: 0.69 m Eq/L
Zucker lean male rats; 0.3 mg/kg oral gavage twice a day, Week 1, before drug 235, vehicle 191
  Cholesterol: 138 mg/dL
Zucker lean male rats; 0.3 mg/kg oral gavage twice a day, Week 1, before drug 639, vehicle 610
  Body Weight: 608 g
Zucker lean male rats; 0.3 mg/kg oral gavage twice a day, Week 1, before drug 926, vehicle 718
  Triglycerides: 527 mg/dL
Zucker lean male rats; 0.3 mg/kg oral gavage twice a day, Week 4, vehicle 0.65
  NEFA: 0.47 m Eq/L
Zucker lean male rats; 0.3 mg/kg oral gavage twice a day, Week 4, before drug 235, vehicle 224
  Cholesterol: 174 mg/dL
Zucker lean male rats; 0.3 mg/kg oral gavage twice a day, Week 4, before drug 639, vehicle 610
  Body Weight: 577 g
Zucker lean male rats; 0.3 mg/kg oral gavage twice a day, Week 4, before drug 926, vehicle 741
  Triglycerides: 174 mg/dL
Zucker lean male rats; 0.3 mg/kg oral gavage twice a day, Week 7, vehicle 0.60
  NEFA: 0.46 m Eq/L
Zucker lean male rats; 0.3 mg/kg oral gavage twice a day, Week 7, before drug 235, vehicle 215
  Cholesterol: 151 mg/dL
Zucker lean male rats; 0.3 mg/kg oral gavage twice a day, Week 7, before drug 639, vehicle 632
  Body Weight: 565 g
Zucker lean male rats; 0.3 mg/kg oral gavage twice a day, Week 7, before drug 926, vehicle 725
  Triglycerides: 219 mg/dL

## CC(C)(Sc1ccc(CCN(CCCCC2CCCCC2)C(=O)NC2CCCCC2)cc1)C(=O)O [Example 1, 2-(4-(2-(1-(Cyclohexanebutyl)-3-cyclohexylureido)ethyl)phenylthio)-2-methylpropionic Acid]
[1]
  activity ratio, PPAR alpha over PPAR gamma: greater than 100

## CC(C)(Sc1ccc(CCN(Cc2ccc(-c3ccccc3C(F)(F)F)cc2Cl)C(=O)NC2CCCCC2)cc1)C(=O)O [Example 3, 2-(4-(2-(1-(2-Chloro-4-(2-trifluoromethylphenyl)phenylmethyl)-3-(cyclohexyl)ureido)ethyl)phenylthio)-2-methylpropionic Acid]
[1]
  activity ratio, PPAR alpha over PPAR gamma: greater than 100
